Patent US20110184147A1, “ENZYME SUBSTRATE FOR LABELING OF PROTEIN” (priority 2008, published 2011)
“Also recorded” adds a separate entry of the source. Square brackets hold non-standard residues; d marks the D form. Peptide text beside a SMILES is read from it. * marks the point of attachment. ξ: configuration not given here. Dansyl = CN(C)c1cccc2c(S(=O)(=O)*)cccc12; ξQ = NC(=O)CCC(N)C(=O)O; Ahx = NCCCCCC(=O)O

Experiments:
MTG [1] = target: T1, MTG (Streptomyces mobaraensis, UniProt P81453); assay: MTG-catalyzed introduction of fluorescent substrates into anti-lysozyme IgG2a antibody; type: biochemical, microbial; settings: substrate 1 mM, mouse anti-lysozyme IgG2a 0.5 mg/ml, MTG 1 U/ml, pH 7, overnight 4° C.; reduced SDS-PAGE
T1 construct: purchased AJINOMOTO (supplied as a gift)
T1 sequence (P81453 77-407): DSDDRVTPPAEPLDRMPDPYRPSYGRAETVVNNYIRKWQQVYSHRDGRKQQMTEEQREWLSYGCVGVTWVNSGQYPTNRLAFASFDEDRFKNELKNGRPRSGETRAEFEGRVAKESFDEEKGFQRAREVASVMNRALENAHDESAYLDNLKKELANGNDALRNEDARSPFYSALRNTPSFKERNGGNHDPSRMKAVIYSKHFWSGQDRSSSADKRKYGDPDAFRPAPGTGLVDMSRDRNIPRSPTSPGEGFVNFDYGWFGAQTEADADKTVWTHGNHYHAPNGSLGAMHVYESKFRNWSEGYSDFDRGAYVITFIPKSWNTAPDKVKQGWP
Procedure: A fluorescent substrate (FITC-ε-Acp-QG, FITC-β-Ala-QG, TR-β-Ala-QG or […]), mouse-derived anti-lysozyme IgG2a antibody (monoclonal) and MTG were added to a 10 mM phosphate buffer (pH 7) to give respective final concentrations of 1 mM, 0.5 mg/ml and 1 U/ml. For the purpose of comparison, an MTG-free sample was prepared. The ingredients were thoroughly agitated and the resulting solution was left to stand overnight at 4° C.
After the reaction, the samples were subjected to SDS-PAGE. The gel from SDS-PAGE was examined with a fluorescent imager before it was stained with a CBB dye solution. For the Dns-ε-Acp-QG containing sample, examination was made with a transilluminator.

BSA (antigen) = assay: Antigen recognizing ability by ELISA (rabbit-derived anti-BSA IgG antibody); type: binding; settings: rabbit-derived anti-BSA IgG antibody (polyclonal) modified by MTG
Procedure: A study was made on samples that were prepared by introducing a fluorescent substrate (FITC-ε-Acp-QG or FITC-β-Ala-QG) into a rabbit-derived anti-BSA IgG antibody (polyclonal) under the same conditions as in Experiment 2-2.
ELISA was performed by the following procedure (FIG. 3-5). • 1) To a Black Plate, 5 mg/ml of BSA (antigen) was added in an amount of 150 µl/well and left to stand overnight at 37° C. • 2) The product of 1) was washed with PBST five times. • 3) Modified anti-BSA IgG antibodies were added in an amount of 60 µl/well and left to stand at room temperature for 5 hours. • 4) The product of 3) was washed with PBST five times. • 5) Examination was made with a fluorescent imager. • 6) A […] sample of AP-labeled anti-rabbit IgG IgG antibodies were added in an amount of 150 µl/well and left to stand at 37° C. for 3 hours. • 7) The product of 6) was washed with TBST five times. • 8) The substrate was added and 10 minutes later, fluorescence derived from the enzymatic reaction was examined with a fluorescent imager.

MTG [2] = target: T1, MTG; assay: MTG-catalyzed introduction of fluorescent substrates into NK6-AP (SDS-PAGE, fluorescent imager); type: biochemical, microbial; settings: NK6-AP 0.5 mg/ml, MTG 1 U/ml; for Reactivity of MTG for fluorescent substrate (introduction into NK6-AP): substrate 1 mM, 10 mM Tris-HCl pH 8, overnight 4° C.
Procedure: To perform a binding reaction, the fluorescent substrate (FITC-ε-Acp-QG, FITC-β-Ala-QG, Flc-QG, TR-β-Ala-QG or Dns-ε-Acp-QG), NK6-AP and MTG were added to 10 mM Tris-HCl (pH 8) to give respective final concentrations of 1 mM, 0.5 mg/ml and 1 U/ml and they were thoroughly agitated and the resulting solution was left to stand overnight at 4° C. For the purpose of comparison, an MTG-free sample was prepared.
After the reaction, the samples were subjected to SDS-polyacrylamide gel electrophoresis (SDS-PAGE). The gel from SDS-PAGE was examined with a fluorescent imager before it was stained with Coomassie Brilliant Blue (CBB) in solution. For the sample containing Dns-ε-Acp-QG, examination was made with a transilluminator.
A study was made using FITC-β-Ala-QG as a fluorescent substrate. The reaction conditions for introducing FITC-β-Ala-QG into NK6-AP were as follows: FITC-β-Ala-QG, NK6-AP and MTG were added to 10 mM Tris-HCl (pH 8) to give respective final concentrations of 0.1 mM, 0.5 mg/ml and 0.1 U/ml and they were thoroughly agitated at 4° C. for 0-5 hours. To trace the binding, the gel from SDS-PAGE was analyzed by a fluorescent imager.
A study was made using FITC-β-Ala-QG as a fluorescent substrate. The reaction conditions for introducing FITC-β-Ala-QG into NK6-AP were as follows: FITC-β-Ala-QG, NK6-AP and MTG were added to 10 mM Tris-HCl (pH 8) to give respective final concentrations of 1-1000 μM, 0.5 mg/ml and 0.1 U/ml and they were thoroughly agitated at 4° C. for 15 minutes. Tracing on the sample after the reaction was performed by the same procedure as in Experiment 2-4.
Dns-β-Ala-QG-biotin, NK6-AP and MTG were added to 20 mM Tris-HCl (pH 8) to give respective final concentrations of 100 μM, 0.5 mg/ml, and 1 U/ml. For the purpose of comparison, an MTG-free sample was prepared. The ingredients were thoroughly agitated and the resulting solution was left to stand overnight at 4° C. for reaction.
After the reaction, the samples were subjected to SDS-polyacrylamide gel electrophoresis (SDS-PAGE). The gel from SDS-PAGE was examined with a transilluminator before it was stained with Coomassie Brilliant Blue (CBB) in solution.
To a 50 mM buffer whose pH was varied over the range of from 5 to 9, FITC-β-Ala-QG, NK6-AP and MTG were added to give respective final concentrations of 0.1 mM, 0.5 mg/ml, and 0.1 U/ml. These ingredients were well stirred and left to stand at 4° C. for reaction. After 6-hr or 15-minute reaction, the sample was mixed with a sample buffer and heated at 95° C. for 15 minutes to stop the reaction. Thereafter, SDS-polyacrylamide gel electrophoresis (SDS-PAGE) was applied. The gel from SDS-PAGE was stained with Coomassie Brilliant Blue (CBB) and observed with a fluorescent imager.
To 50 mM Tris-HCl (pH 8), FITC-β-Ala-QG, NK6-AP and MTG were added to give respective final concentrations of 0.1 mM, 0.5 mg/ml, and 0.001-1 U/ml. These ingredients were well stirred and left to stand at 4° C. for reaction. The reaction was stopped and evaluation was made by the same procedures as in Experiment 2-2.
To 50 mM Tris-HCl (pH 8), FITC-β-Ala-QG-alkyne, NK6-AP and MTG were added to give respective final concentrations of 0.1 mM, 0.5 mg/ml, and 0.1 U/ml. For the purpose of comparison, a MTG-free sample was also prepared. Both samples were well stirred and left to stand at 4° C. for reaction. The reaction was stopped and evaluation was made by the same procedures as in Experiment 2-2.

[3] = fluorescein in FITC-β-Ala-QG; cited from earlier work
avidin [4] = target: avidin (Gallus gallus, UniProt P02701); settings: cited from earlier work
Sequence of avidin (Gallus gallus, UniProt P02701) (P02701 25-152, species assumed): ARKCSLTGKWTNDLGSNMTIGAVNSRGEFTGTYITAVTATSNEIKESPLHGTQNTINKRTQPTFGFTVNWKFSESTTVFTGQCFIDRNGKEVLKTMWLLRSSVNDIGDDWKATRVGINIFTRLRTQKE

NK6-AP [5] = target: T2, NK6-AP (Escherichia coli, UniProt P00634); assay: Effect of modification on the enzymatic activity of NK6-AP (p-NPP); type: biochemical; settings: AP 28 nM, p-NPP 1 mM, pH 8.0, 27° C., with vs without MTG
T2 construct: NK6-AP; MKHKGSTPEMP-ALGLKLEHHHHHH; made in house
T2 sequence (P00634 22-471): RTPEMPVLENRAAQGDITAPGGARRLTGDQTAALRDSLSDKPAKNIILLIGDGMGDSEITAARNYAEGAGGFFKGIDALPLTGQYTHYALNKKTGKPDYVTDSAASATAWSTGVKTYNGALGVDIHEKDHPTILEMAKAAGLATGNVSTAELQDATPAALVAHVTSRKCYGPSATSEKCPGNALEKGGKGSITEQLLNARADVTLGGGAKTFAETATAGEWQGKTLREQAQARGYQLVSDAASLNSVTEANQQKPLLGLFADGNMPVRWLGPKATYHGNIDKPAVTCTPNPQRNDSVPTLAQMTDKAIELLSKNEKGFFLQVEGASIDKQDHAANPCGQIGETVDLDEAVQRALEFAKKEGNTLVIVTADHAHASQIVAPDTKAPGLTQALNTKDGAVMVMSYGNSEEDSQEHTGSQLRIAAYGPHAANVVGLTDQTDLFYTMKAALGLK
Procedure: The effect of introduction on the enzymatic activity was studied. In the study, p-nitrophenylphosphoric acid (p-NPP) was used as a substrate and the activities of the samples prepared in Experiment 2-2 were measured; AP would catalyze the dephosphorylation of p-NPP to form p-nitrophenol (p-NP). The reaction conditions for activity measurement were AP 28 nM, p-NPP 1 mM and pH 8.0 and at a controlled temperature of 27° C., the p-NP derived absorption at 410 nm was traced.
The activities of the samples prepared in Experiment 2-2 were measured, with p-nitrophenylphosphoric acid (p-NPP) being used as a substrate; AP would catalyze the dephosphorylation of p-NPP to form p-nitrophenol (p-NP). The reaction conditions for activity measurement were AP 28 nM, p-NPP 1 mM and pH 8.0 and at a controlled temperature of 27° C., the p-NP derived absorption at 410 nm was traced.
With p-nitrophenylphosphoric acid (p-NPP) being used as a substrate, the sampled prepared in Experiment 2-4 were measured; AP would catalyze the dephosphorylation of p-NPP to form p-nitrophenol (p-NP) (see below). The reaction conditions for activity measurement were AP 28 nM, p-NPP 1 mM and pH 8.0 and at a controlled temperature of 27° C., the p-NP derived absorption at 410 nm was traced.

NK6-AP [6] = target: T2, NK6-AP; assay: Degree of labeling of dual labeled protein (absorbance at 280 nm and 330 nm); settings: after His-tag purification
Procedure: By His-tag purification on a Ni-NTA column, the dual labeled protein was separated from an excess of Dns-β-Ala-QG-biotin. An excess of the imidazole used in the elution step was removed by gel filtration purification on a PD-10 column with 20 mM Tris-HCl (pH 8) being used as an elution buffer.
The resulting dual labeled protein was concentrated with a suction-type centrifugal evaporator and an attempt was made to calculate the degree of its labeling by measuring the absorbance at 280 nm and 330 nm.

MTG [7] = target: T1, MTG; assay: MTG-catalyzed introduction of fluorescent substrates into NK6-AP (SDS-PAGE, fluorescent imager); type: biochemical, microbial; settings: substrate 1 mM, NK6-AP 0.5 mg/ml, MTG 1 U/ml, 10 mM Tris-HCl pH 8, overnight 4° C.; listed as Dns-β-Acp-QG
avidin [8] = assay: Immobilizing the dual labeled protein on avidin-coated microplate; type: binding; settings: 1.5 μM, 37° C., 1 h; dansyl fluorescence and AP activity (ECF)
Procedure: 2-6. Immobilizing the Dual Labeled Protein on Microplate • 1) After His-tag purification, the dual labeled protein (1.5 μM) was dissolved in 20 mM Tris-HCl (pH 8) and added onto an avidin-coated microplate (product of Nunc) in an amount of 100 μl/well so that it would be immobilized by the interaction between biotin and avidin (37° C., 1 h). • 2) To observe the fluorescence derived from dansyl groups, 20 mM Tris-HCl (pH 8) was added in an amount of 100 μl/well and immobilization was verified by a fluorescent imager. • 3) A solution of ECF as a fluorescent substrate of AP was diluted 100 folds with 1 M Tris-HCl (pH 8) and added onto the plate in an amount of 100 μl/well for reaction with the immobilized AP (25° C., 5 min). (Before steps 2) and 3), a microplate washer was used to wash the plate with TBST (TBS+[…] Tween 20) three times each in an amount of 300 μl/well.)

NC(=O)CCC(NC(=O)CCCCCNC(=S)Nc1ccc(-c2c3ccc(=O)cc-3oc3cc(O)ccc23)c(C(=O)O)c1)C(=O)NCC(=O)O (stereo not shown) [FITC-ε-Acp-QG]
Reactivity of antibody with fluorescent substrate by MTG catalysis (MTG [1]): H chains of the antibody are modified; also recorded: site-specific modification of the H chains in the antibody | Antigen recognizing ability of modified antibody (BSA (antigen)): maintained its antigen recognizing ability | Reactivity of MTG for fluorescent substrate (introduction into NK6-AP) (MTG [2]): served as substrates of MTG; also recorded: recognizable as a substrate of MTG

fluorescein isothiocyanate [FITC]
pKa [3]: 6.4

NC(=O)CCC(NC(=O)c1ccc(-c2c3ccc(=O)cc-3oc3cc(O)ccc23)c(C(=O)O)c1)C(=O)NCC(=O)O (stereo not shown) [Flc-QG]
Reactivity of MTG for fluorescent substrate (introduction into NK6-AP) (MTG [2]): not recognizable by MTG; also recorded: not recognized as a substrate

O=C(O)CCCC[C@@H]1SC[C@@H]2NC(=O)N[C@@H]21 [biotin]
Ka (avidin [4]): 10^15 M

CN(C)c1cccc2c(S(=O)(=O)NCCC(=O)NC(CCC(N)=O)C(=O)NCC(=O)NCCOCCOCCNC(=O)CCCC[C@@H]3SC[C@@H]4NC(=O)N[C@@H]43)cccc12 (stereo partly drawn) [Dns-β-Ala-QG-biotin]
Relative activity of NK6-AP after MTG-catalyzed introduction (NK6-AP [5]): hardly any difference in the activity of AP; also recorded: in no way affected by the introduction | Degree of labeling (moles of dansyl groups / moles of NK6-AP) (NK6-AP [6]): 1.1 | Reactivity of MTG for dual labeled substrate (introduction into NK6-AP) (MTG [2]; substrate 100 μM, 20 mM Tris-HCl pH 8, overnight 4° C.): had been introduced into NK6-AP; also recorded: confirmed the MTG-catalyzed introduction

CN(C)c1cccc2c(S(=O)(=O)NCCCCCC(=O)NC(CCC(N)=O)C(=O)NCC(=O)O)cccc12 (stereo not shown) [Dns-ε-Acp-QG] ({Dansyl-Ahx}-[ξQ]-Gly-OH)
Reactivity of antibody with fluorescent substrate by MTG catalysis (MTG [1]): H chains of the antibody are modified; also recorded: site-specific modification of the H chains in the antibody | Reactivity of MTG for fluorescent substrate (introduction into NK6-AP) (MTG [7]): served as substrates of MTG | Reactivity of MTG for fluorescent substrate (introduction into NK6-AP) (MTG [2]): recognizable as a substrate of MTG

B1: dual labeled protein: NK6-AP into which Dns-β-Ala-QG-biotin was introduced by MTG catalysis (conjugate)
chain: MKHKGSTPEMPVLENRAAQGDITAPGGARRLTGDQTAALRDSLSDKPAKNIILLIGDGMGDSEITAARNYAEGAGGFFKGIDALPLTGQYTHYALNKKTGKPDYVTDSAASATAWSTGVKTYNGALGVDIHEKDHPTILEMAKAAGLATGNVSTAELQDATPAALVAHVTSRKCYGPSATSEKCPGNALEKGGKGSITEQLLNARADVTLGGGAKTFAETATAGEWQGKTLREQAQARGYQLVSDAASLNSVTEANQQKPLLGLFADGNMPVRWLGPKATYHGNIDKPAVTCTPNPQRNDSVPTLAQMTDKAIELLSKNEKGFFLQVEGASIDKQDHAANPCGQIGETVDLDEAVQRALEFAKKEGNTLVIVTADHAHASQIVAPDTKAPGLTQALNTKDGAVMVMSYGNSEEDSQEHTGSQLRIAAYGPHAANVVGLTDQTDLFYTMKAALGLKLEHHHHHH
Immobilization on avidin-coated microplate (avidin [8]): immobilized on the microplate while retaining its function
